# Where two headings read alike, the source gives them in different places.
# Key:
# [1] = tested on: Bacillus subtilis 168; assay: Bacterial growth in microscale cultivation, B. subtilis; type: cell-based; conditions: relative to control
# Procedure, shortened: (§1)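 Inhibitors in DMSO were added to the medium, at a maximum of 400 μM for trans-chalcone and 100 μM for 2'-hydroxychalcone. Cultures were seeded at OD600 0.5, or 0.25 for B. subtilis, and growth was followed as 620 nm backscatter in a BioLector at 1200 rpm. Final backscatter, growth rate and lag phase were compared with DMSO controls.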
# [2] = tested on: Corynebacterium glutamicum ATCC13032; assay: Bacterial growth in microscale cultivation, C. glutamicum; type: cell-based; conditions: relative to control; for activity at 0.1 µM / activity at 1 µM / activity at 10 µM: Corynebacterium glutamicum
# Procedure, shortened: as §1
# [3] = target: T1, F. trinervia PEPC (Flaveria trinervia, UniProt P30694); assay: biochemical; type: biochemical; conditions: C4 PEPC
# T1 construct: the full-length ppcA gene of PEPC from F. trinervia (EMBL-Bank X61304); made in house; host or cells: Escherichia coli BL21(DE3)
# T1 sequence (P30694 1-966): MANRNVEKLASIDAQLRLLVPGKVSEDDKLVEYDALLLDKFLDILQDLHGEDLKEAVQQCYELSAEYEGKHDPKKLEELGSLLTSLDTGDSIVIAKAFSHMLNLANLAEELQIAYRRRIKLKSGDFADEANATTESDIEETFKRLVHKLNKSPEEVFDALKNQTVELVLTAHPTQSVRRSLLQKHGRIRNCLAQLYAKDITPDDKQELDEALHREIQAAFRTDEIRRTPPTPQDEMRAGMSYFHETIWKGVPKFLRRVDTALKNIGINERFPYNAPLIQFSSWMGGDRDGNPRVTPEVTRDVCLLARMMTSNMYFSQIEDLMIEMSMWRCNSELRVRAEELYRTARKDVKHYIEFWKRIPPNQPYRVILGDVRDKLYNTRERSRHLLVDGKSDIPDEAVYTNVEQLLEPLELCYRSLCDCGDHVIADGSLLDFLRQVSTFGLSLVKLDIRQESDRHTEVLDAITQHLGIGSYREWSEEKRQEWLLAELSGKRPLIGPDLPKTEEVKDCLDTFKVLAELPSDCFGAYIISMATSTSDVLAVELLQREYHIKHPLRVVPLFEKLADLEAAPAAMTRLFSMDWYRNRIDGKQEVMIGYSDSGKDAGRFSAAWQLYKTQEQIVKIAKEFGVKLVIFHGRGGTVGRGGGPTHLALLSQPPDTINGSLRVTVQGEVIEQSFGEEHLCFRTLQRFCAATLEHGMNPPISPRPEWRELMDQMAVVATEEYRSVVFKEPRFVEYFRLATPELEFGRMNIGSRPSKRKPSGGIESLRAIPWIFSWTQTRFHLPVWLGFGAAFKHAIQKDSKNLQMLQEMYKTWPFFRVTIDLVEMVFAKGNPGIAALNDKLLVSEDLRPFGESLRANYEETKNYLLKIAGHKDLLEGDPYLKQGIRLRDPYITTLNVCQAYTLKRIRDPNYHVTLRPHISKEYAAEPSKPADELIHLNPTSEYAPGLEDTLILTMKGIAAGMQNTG
compound,measurement,setting,value
"O=C(/C=C/c1ccc(O)c(O)c1)c1ccc(O)c(O)c1O [Compound 12, 2′,3′,4′,3,4-Pentahydroxy-chalcone]",activity at 0.1 µM,"[1]; Bacillus subtilis, 168, complex medium, 0.1 µM, read-out: Final Backscatter",93.5%
same,activity at 0.1 µM,"[1]; Bacillus subtilis, 168, complex medium, 0.1 µM, read-out: Growth rate",96.7%
same,activity at 1 µM,"[1]; Bacillus subtilis, 168, complex medium, 1 µM, read-out: Final Backscatter",93.9%
same,activity at 1 µM,"[1]; Bacillus subtilis, 168, complex medium, 1 µM, read-out: Growth rate",104%
same,activity at 10 µM,"[1]; Bacillus subtilis, 168, complex medium, 10 µM, read-out: Final Backscatter",90.6%
same,activity at 10 µM,"[1]; Bacillus subtilis, 168, complex medium, 10 µM, read-out: Growth rate",109%
same,activity at 0.1 µM,"[1]; Bacillus subtilis, 168, minimal medium, 0.1 µM, read-out: Final Backscatter",102%
same,activity at 0.1 µM,"[1]; Bacillus subtilis, 168, minimal medium, 0.1 µM, read-out: Growth rate",123%
same,activity at 1 µM,"[1]; Bacillus subtilis, 168, minimal medium, 1 µM, read-out: Final Backscatter",98.6%
same,activity at 1 µM,"[1]; Bacillus subtilis, 168, minimal medium, 1 µM, read-out: Growth rate",113%
same,activity at 10 µM,"[1]; Bacillus subtilis, 168, minimal medium, 10 µM, read-out: Final Backscatter",104%
same,activity at 10 µM,"[1]; Bacillus subtilis, 168, minimal medium, 10 µM, read-out: Growth rate",115%
same,Lag Phase,"[1]; complex medium, 0.1 µM","110,6%"
same,Lag Phase,"[1]; complex medium, 1 µM","102,7%"
same,Lag Phase,"[1]; complex medium, 10 µM","94,7%"
same,Lag Phase,"[1]; minimal medium, 0.1 µM","98,2%"
same,Lag Phase,"[1]; minimal medium, 1 µM","100,6%"
same,Lag Phase,"[1]; minimal medium, 10 µM","100,0%"
same,activity at 0.1 µM,"[2]; ATCC13032, complex medium, 0.1 µM, read-out: Final Backscatter",97%
same,activity at 0.1 µM,"[2]; ATCC13032, complex medium, 0.1 µM, read-out: Growth rate",108%
same,activity at 1 µM,"[2]; ATCC13032, complex medium, 1 µM, read-out: Final Backscatter",93.8%
same,activity at 1 µM,"[2]; ATCC13032, complex medium, 1 µM, read-out: Growth rate",132%
same,activity at 10 µM,"[2]; ATCC13032, complex medium, 10 µM, read-out: Final Backscatter",89.6%
same,activity at 10 µM,"[2]; ATCC13032, complex medium, 10 µM, read-out: Growth rate",144%
same,activity at 0.1 µM,"[2]; ATCC13032, minimal medium, 0.1 µM, read-out: Final Backscatter",99.6%
same,activity at 0.1 µM,"[2]; ATCC13032, minimal medium, 0.1 µM, read-out: Growth rate",102%
same,activity at 1 µM,"[2]; ATCC13032, minimal medium, 1 µM, read-out: Final Backscatter",97.6%
same,activity at 1 µM,"[2]; ATCC13032, minimal medium, 1 µM, read-out: Growth rate",102%
same,activity at 10 µM,"[2]; ATCC13032, minimal medium, 10 µM, read-out: Final Backscatter",96.7%
same,activity at 10 µM,"[2]; ATCC13032, minimal medium, 10 µM, read-out: Growth rate",97.9%
same,Lag Phase,"[2]; complex medium, 0.1 µM","96,4%"
same,Lag Phase,"[2]; complex medium, 1 µM","84,1%"
same,Lag Phase,"[2]; complex medium, 10 µM","99,3%"
same,Lag Phase,"[2]; minimal medium, 0.1 µM","99,3%"
same,Lag Phase,"[2]; minimal medium, 1 µM","99,3%"
same,Lag Phase,"[2]; minimal medium, 10 µM","100,7%"
same,lower IC50 value in comparison to 8–11,[3],~ 5 fold
same,IC50,[3]; IC50 F. trinervia PEPC,600 ± 100 nM

# Reference: PMC4893628, “Chalcone-based Selective Inhibitors of a C4 Plant Key Enzyme as Novel Potential Herbicides” (Scientific Reports, 2016)
